Experimental findings from ChEMBL document CHEMBL1158225, “Antiplatelet flavonoids from seeds of Psoralea corylifolia” (J Nat Prod, 1996) are described below.

What all share (format): functional, cell-based
Holding throughout (details): Oryctolagus cuniculus

Assay [1] in a line: (§1) Antiplatelet activity against rabbit platelet assessed as inhibition of platelet-activating factor-induced platelet aggregation preincubated for 3 mins by turbidimetric method.
Assay [2] relates to Platelet. Kind of assay: Antiplatelet activity against rabbit platelet assessed as inhibition of arachidonic acid-induced platelet aggregation at 300 uM preincubated for 3 mins by turbidimetric method.
Assay [3] relates to Platelet. Kind of assay: Antiplatelet activity against rabbit platelet assessed as inhibition of collagen-induced platelet aggregation at 300 uM preincubated for 3 mins by turbidimetric method.
For assay [4], the system named is Platelet. Kind of assay: Antiplatelet activity against rabbit platelet assessed as inhibition of platelet-activating factor-induced platelet aggregation at 300 uM preincubated for 3 mins by turbidimetric method.
Assay [5] is described as follows: Antiplatelet activity against rabbit platelet assessed as inhibition of collagen-induced platelet aggregation preincubated for 3 mins by turbidimetric method.
A short description of assay [6]: Antiplatelet activity against rabbit platelet assessed as inhibition of arachidonic acid-induced platelet aggregation preincubated for 3 mins by turbidimetric method.
Assay [7] deals with Platelet. The assay is described as §1.

The source made the active and inactive calls. The rule behind the calls is not given here.

For the compound `CCCCCCCCCCCCCCCCCCNC(=O)OCC(COP(=O)([O-])OCC[n+]1ccsc1)OC` (configuration not stated), the IC50 in assay [1] was determined as 1.1 µM.

Consider `CC(C)=CCc1cc2c(cc1O)O[C@H](c1ccc(O)cc1)CC2=O`, for which the outcome in the assay with Platelet [2], with Platelet [3] and in the assay on Platelet [4] was inactive.

Turning to `CC(=O)Oc1ccccc1C(=O)O` [ASPIRIN], in assay [5], the IC50 stood at 30.5 µM.

For `CC(C)=CCc1c(O)ccc(C(=O)/C=C/c2ccc(O)cc2)c1O` [ISOBAVACHALCONE], the IC50 in assay [6] is 0.5 µM; in assay [5], 65.1 µM; in assay [1], 41.6 µM.

With `CC(C)=CCc1cc(-c2coc3cc(O)ccc3c2=O)ccc1O` [NEOBAVAISOFLAVONE], the IC50 in assay [6] came to 7.8 µM; in assay [5] it was 62.4 µM; in assay [1], 2.5 µM. Further, the Activity result in the assay on Platelet [7] was “Dose-dependent effect”.
